Source: PMC8952364, “Polyphenols as Inhibitors of Antibiotic Resistant Bacteria—Mechanisms Underlying Rutin Interference with Bacterial Virulence” (Pharmaceuticals, 2022)
In brackets after ≈: the same amount, converted by molar mass.

Experiments:
[1] = test system: Methicillin resistant S. aureus IBRS MRSA 011; assay: Antimicrobial microdilution assay (MIC/MBC); format: cell-based, Staphylococcus aureus; details: Staphylococcus aureus, MRSA
Procedure: (§1) The bacterial suspension (0.5 Mc Farland) was prepared, and twenty-fold dilutions of these suspensions were mixed in a 1:10 ratio with the corresponding polyphenol dilution (0.0039–1 mg/mL). Microtiter plates were incubated at 37 °C for 24 h. The lowest concentrations without visible growth (under a binocular microscope) were defined as MICs. The bactericidal concentrations (MBCs) were determined by serial subcultivation of 2 μL of the well’s content and further incubation for 24 h at 37 °C. Streptomycin (SigmaAldrich, Darmstadt, Germany) was used as a positive control. The polyphenols were obtained from Extrasynthese, Rhone, France (rutin, isoquercitrin) and SigmaAldrich, Germany (hesperetin, hesperidin, naringenin, naringin, taxifolin, morin, chlorogenic acid, ferulic acid, p-coumaric acid, and gallic acid). The stock compounds were prepared in ethanol (30%), and adequate ethanol concentrations were used as the negative control in the assays. Experiments were done in triplicate.

[2] = test system: eleven antibiotic resistant strains of bacteria; assay: Antimicrobial assay, summary over the examined strains; format: cell-based; details: summary of Table 1
Procedure: as §1

[3] = test system: E. coli IBRS E003; assay: Antimicrobial microdilution assay (MIC/MBC); format: cell-based, Escherichia coli; details: Escherichia coli, IBRSE003
Procedure: as §1

[4] = test system: E. coli IMD989; assay: Antimicrobial microdilution assay (MIC/MBC); format: cell-based, Escherichia coli; details: Escherichia coli, IMD989
Procedure: as §1

[5] = test system: P. aeruginosa MMA83; assay: Antimicrobial microdilution assay (MIC/MBC); format: cell-based, Pseudomonas aeruginosa; details: Pseudomonas aeruginosa, MMA83
Procedure: as §1

[6] = test system: P. aeruginosa IBRS P001; assay: Antimicrobial microdilution assay (MIC/MBC); format: cell-based, Pseudomonas aeruginosa; details: Pseudomonas aeruginosa, IBRSP001
Procedure: as §1

[7] = test system: A. xylosoxidans 37F; assay: Antimicrobial microdilution assay (MIC/MBC); format: cell-based, Achromobacter xylosoxidans; details: Achromobacter xylosoxidans, 37F
Procedure: as §1

[8] = test system: P. aeruginosa IBRS P001 biofilm; assay: Crystal violet antibiofilm assay (biofilm formation); format: cell-based, Pseudomonas aeruginosa; details: MIC and sub-MIC, 24 h, crystal violet, Figure 1
Procedure: After incubation, each well was washed twice with sterile PBS (phosphate-buffered saline, pH 7.4) and fixed with methanol for 10 min. After removal of methanol the plate was air-dried. The biofilm was stained with 0.1% crystal violet (Bio-Merieux, Marcy l’Etoile, France) for 30 min. The plate was washed with water, air dried, and the stain was dissolved with 200 μL of 96% ethanol (Zorka, Sabac, Serbia). The absorbance was read at 620 nm on a Multiskan™ FC microplate photometer (Thermo Scientific™, Waltham, MA, USA). The results are presented as biofilm forming capacity (%) compared to control.

[9] = test system: Escherichia coli K-12 MG1655, Salmonella enterica serovar Typhimurium LT2, and Pseudomonas putida ATCC 795; parameters: method as in PMID 18045389; details: cited from earlier work
[10] = test system: HaCaT cells; assay: Cytotoxicity in HaCaT cell line (crystal violet assay); format: cell-based, human
Procedure: For determination of the polyphenols’ cytotoxic effect, a crystal violet assay was used, with modifications. The cytotoxic effect of polyphenols was analyzed on spontaneously immortalized human skin keratinocytes (HaCaT, AddexBio No. T0020001, San Diego, CA, USA) cell lines. […] Cells (1 × 10^4 cells/well) were seeded in a 96-well plate (Sarstedt, Nümbrecht, Germany) 24 h before treatment. […] Cells were incubated with the compounds for 24 h. […] After crystal violet was removed, the plates were washed in a stream of tap water and left to air-dry at room temperature for 24 h. The absorbance was measured in a microplate reader (Multiskan™ FC Microplate Photometer, Thermo Scientific™) at 590 nm. The results were expressed as IC50 value in μg/mL. The criterion used to categorize the cytotoxic activity polyphenols was as follows: […] All analyses were performed in triplicate; each replicate was also quantified three times. Data were expressed as mean standard deviation, where applicable.

[11] = test system: K. pneumoniae IT977; assay: Antimicrobial microdilution assay (MIC/MBC); format: cell-based, Klebsiella pneumoniae; details: Klebsiella pneumoniae, IT977
Procedure: as §1

[12] = test system: K. pneumoniae Ni9; assay: Antimicrobial microdilution assay (MIC/MBC); format: cell-based, Klebsiella pneumoniae; details: Klebsiella pneumoniae, NI9
Procedure: as §1

[13] = test system: S. infantis 1371/1; assay: Antimicrobial microdilution assay (MIC/MBC); format: cell-based, Salmonella Infantis; details: Salmonella enterica, 1371/1
Procedure: as §1

[14] = test system: A. baumannii 6077/12; assay: Antimicrobial microdilution assay (MIC/MBC); format: cell-based, Acinetobacter baumannii; details: Acinetobacter baumannii, 6077/12
Procedure: as §1

[15] = test system: A. baumannii S2/2; assay: Antimicrobial microdilution assay (MIC/MBC); format: cell-based, Acinetobacter baumannii; details: Acinetobacter baumannii, S2/2
Procedure: as §1

[16] = subcultivation, 24 h at 37 °C, read-out: MBC

For `COc1ccc([C@@H]2CC(=O)c3c(O)cc(O)cc3O2)cc1O` [Hesperetin, hesperetin], the MIC ([1]; 37 °C, 24 h, read-out: MIC) was 500 µg/mL (≈ 1.65 mM), the MBC [1, 16] was 1000 µg/mL (≈ 3.31 mM) and the “MIC towards a range of antibiotic-resistant bacterial strains” value [2] was ≥ 500 µg/mL. The MIC ([3]; 37 °C, 24 h, read-out: MIC) was > 1000 µg/mL, the MBC [3, 16] was > 1000 µg/mL and the MIC ([4]; 37 °C, 24 h, read-out: MIC) was > 1000 µg/mL. The MBC [4, 16] was > 1000 µg/mL, the MIC ([5]; 37 °C, 24 h, read-out: MIC) was 1000 µg/mL (≈ 3.31 mM) and the MBC [5, 16] was 1000 µg/mL (≈ 3.31 mM). It also gave an MIC ([6]; 37 °C, 24 h, read-out: MIC) of 500 µg/mL (≈ 1.65 mM), an MBC [6, 16] of 1000 µg/mL (≈ 3.31 mM) and an MIC ([7]; 37 °C, 24 h, read-out: MIC) of 1000 µg/mL (≈ 3.31 mM). For the same molecule, the MBC [7, 16] was 1000 µg/mL (≈ 3.31 mM), the “reduction of biofilm formation (biomass), in words” value [8] was “significant (****, p < 0.0001) reduction” and the MIC [9] was ≥ 1000 µg/mL. For the same molecule, the “cytotoxicity towards HaCaT, in words” value [10] was “non-cytotoxic properties”, the IC50 ([10]; Homo sapiens, HaCaT, 24 h treatment, crystal violet, read-out: IC50 (compound concentration that inhibited 50% of the cell growth)) was > 1000 µg/mL and the MIC ([11]; 37 °C, 24 h, read-out: MIC) was > 1000 µg/mL. For the same molecule, the MBC [11, 16] was > 1000 µg/mL, the MIC ([12]; 37 °C, 24 h, read-out: MIC) was 1000 µg/mL (≈ 3.31 mM) and the MBC [12, 16] was 1000 µg/mL (≈ 3.31 mM). The MIC ([13]; 37 °C, 24 h, read-out: MIC) was > 1000 µg/mL, the MBC [13, 16] was > 1000 µg/mL and the MIC ([14]; 37 °C, 24 h, read-out: MIC) was 500 µg/mL (≈ 1.65 mM). The MBC [14, 16] was 500 µg/mL (≈ 1.65 mM), the MIC ([15]; 37 °C, 24 h, read-out: MIC) was 500 µg/mL (≈ 1.65 mM) and the MBC [15, 16] was 500 µg/mL (≈ 1.65 mM).
